Assay [1] relates to hypothalamic slices. As to conditions: hypothalamic slices in vitro; cited from earlier work.
Assay [2] has as its target T1, Y1R (Homo sapiens, UniProt P25929).
T1 sequence (P25929 1-384): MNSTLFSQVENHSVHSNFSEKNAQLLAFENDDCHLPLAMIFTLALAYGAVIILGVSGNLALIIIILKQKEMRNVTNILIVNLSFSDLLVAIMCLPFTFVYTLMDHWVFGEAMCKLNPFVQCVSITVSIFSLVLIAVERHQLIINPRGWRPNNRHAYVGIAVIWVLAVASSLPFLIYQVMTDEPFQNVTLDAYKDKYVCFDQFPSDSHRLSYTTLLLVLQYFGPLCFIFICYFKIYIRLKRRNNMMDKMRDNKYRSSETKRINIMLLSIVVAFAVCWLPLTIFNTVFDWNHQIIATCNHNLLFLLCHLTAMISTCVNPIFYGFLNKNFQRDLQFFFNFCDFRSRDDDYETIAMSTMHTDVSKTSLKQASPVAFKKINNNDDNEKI
The assay is described as follows: CaFlux Assay (FLIPR), Y1R. It is filed as cell-based.

In assay [3] the target is Y4R (Homo sapiens, UniProt P50391). Nature of the assay: CaFlux Assay (FLIPR), Y4R. It is filed as cell-based.
The target in assay [4] is T2, Y5R (Homo sapiens, UniProt Q15761).
T2 sequence (Q15761 1-445): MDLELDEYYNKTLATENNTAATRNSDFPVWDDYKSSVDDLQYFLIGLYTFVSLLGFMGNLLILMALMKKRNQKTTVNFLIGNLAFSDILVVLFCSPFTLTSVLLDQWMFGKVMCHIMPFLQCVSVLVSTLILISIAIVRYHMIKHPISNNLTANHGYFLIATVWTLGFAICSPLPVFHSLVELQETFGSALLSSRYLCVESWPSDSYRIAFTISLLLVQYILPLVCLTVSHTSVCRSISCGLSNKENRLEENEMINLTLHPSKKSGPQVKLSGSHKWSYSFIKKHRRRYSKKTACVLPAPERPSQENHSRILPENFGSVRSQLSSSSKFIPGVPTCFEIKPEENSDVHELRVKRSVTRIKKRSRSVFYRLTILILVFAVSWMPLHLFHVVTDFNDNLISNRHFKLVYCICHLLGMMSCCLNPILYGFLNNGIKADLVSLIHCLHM
Nature of the assay: CaFlux Assay (FLIPR), Y5R.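 As to Emax: percent of the maximal response of the positive control agonist.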 In kind it is cell-based. Conditions: for Emax: read-out: Y5R FLIPR, percentage in parentheses under the EC50.

Assay [5] deals with T3, hNPY2R (Homo sapiens, UniProt P49146).
T3 sequence (P49146 1-381): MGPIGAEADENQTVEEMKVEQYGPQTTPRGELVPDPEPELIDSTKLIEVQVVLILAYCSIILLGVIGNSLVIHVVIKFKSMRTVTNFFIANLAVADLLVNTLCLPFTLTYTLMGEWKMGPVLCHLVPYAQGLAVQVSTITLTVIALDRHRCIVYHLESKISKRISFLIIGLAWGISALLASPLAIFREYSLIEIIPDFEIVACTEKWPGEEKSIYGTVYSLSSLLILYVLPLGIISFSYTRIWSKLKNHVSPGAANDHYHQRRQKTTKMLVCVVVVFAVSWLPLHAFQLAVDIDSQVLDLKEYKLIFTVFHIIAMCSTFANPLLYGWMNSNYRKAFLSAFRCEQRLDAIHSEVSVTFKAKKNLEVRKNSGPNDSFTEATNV
The assay is described as follows: cAMP Agonist Assay, HEK293/hNPY2R cells. In kind it is cell-based. More on the design: expressed in transfected cells; host or cells: HEK293/hNPY2R (G418 selection).
Protocol: On the first day, medium was discarded, and the monolayer cells were washed with 10 mL PBS per flask (T225). […] The flask was gently tapped and the cell suspension was pooled. Each flask was rinsed with 10 mL plating medium and centrifuged at 1000 rpm for 5 min. The suspension was pooled and counted. The suspension was resuspended in plating medium at a density of 2.0×10^5 cells/mL for HEK293/hNPY2R. 50 microliters of cells (HEK293/hNPY2R-10,000 cells/well) were transferred into the 384-well plate using Multi-drop dispenser. The plates were incubated at 37° C. overnight. […] The media and reagents were allowed to come to room temperature. Before the dilutions were prepared, the stock solution of stimulating compound in dimethyl sulphoxide (DMSO, Sigma, cat #D2650) was allowed to warm up to 32 C for 5-10 min. […] The cell medium was tapped off with a gentle inversion of the cell plate on a paper towel. 50 μL of stimulation medium was placed per well (each concentration done in four replicates). The plates were incubated at room temperature for 30 min, and the cells were checked under a microscope for toxicity. After 30 minutes of treatment, the stimulation media was discarded and 50 mL/well of Assay Lysis Buffer (provided in the Tropix kit) was added. The plates were incubated for 45 min@37° C. 20 μL of the lysate was transferred from stimulation plates into the pre-coated antibody plates (384-well) from the Tropix kit. 10 μL of AP conjugate and 20 μL of anti-cAMP antibody was added. The plates were incubated at room temperature while shaking for 1 hour. The plates were then washed 5 times with Wash Buffer, 70 μL per well for each wash. The plates were tapped to dry. 30 μL/well of CSPD/Saphire-II RTU substrate/enhancer solution was added and incubated for 45 min @ RT (shake). Signal for 1 sec/well in a Luminometer.

In assay [6] the target is T3, hNPY2R. The assay is described as follows: CaFlux Assay (FLIPR), Y2R. In kind it is cell-based. Further details: expressed in transfected cells; host or cells: HEK-293 stably expressing G protein chimera Gaqi9.
Protocol: Hek-293 cells were stably transfected with the G protein chimera Gaqi9 and the hygromycin-B resistance gene were further transfected with the human NPY2 receptor and G418 antibiotic selection. Following selection in both hygromycin-B and G418, individual clones were assayed for their response to PYY. The transfected cells were cultured in DMEM medium supplemented with 10% fetal bovine serum, 50 μg/mL hygromycin-B 2 mM glutamine, 100 U/mL penicillin, 100 μg/mL streptomycin and 250 μg/mL G418. Cells are harvested with trypsin-EDTA and counted using ViaCount reagent. The cell suspension volume is adjusted to 4.8×10^5 cells/mL with complete growth media. Aliquots of 25 μL are dispensed into 384 well Poly-D Lysine coated black/clear microplates (Falcon) and the microplates were placed in a 37° C. CO2 incubator overnight. Loading Buffer (Calcium-3 Assay Kit, Molecular Devices) was prepared by dissolving the contents of one vial (Express Kit) into 1000 mL Hank's Balanced Salt Solution containing 20 mM HEPES and 5 mM probenecid. Aliquots of 25 μL of diluted dye were dispensed into the cell plates and the plates are then incubated for 1 hour at 37° C. During the incubation, test compounds were prepared at 3.5× the desired concentration in HBSS (20 mM HEPES)/0.05% BSA/1% DMSO and transferred to a 384 well plate for use on FLIPR. After incubation, both the cell and compound plates were brought to the FLIPR and 20 μL of the diluted compounds were transferred to the cell plates by the FLIPR. During the assay, fluorescence readings were taken simultaneously from all 384 wells of the cell plate every 1.5 seconds. Five readings were taken to establish a stable baseline, and then 20 μL of sample was rapidly (30 μL/sec) and simultaneously added to each well of the cell plate. The fluorescence was continuously monitored before, during and after sample addition for a total elapsed time of 100 seconds. Responses (increase in peak fluorescence) in each well following addition were determined. The initial fluorescence reading from each well, prior to ligand stimulation, was used as a zero baseline value for the data from that well. The responses are expressed as % of maximal response of the positive control.

The term EC50 denotes the midpoint of the concentration-response curve. The low end stands for higher potency in that assay, the high end for lower potency in that assay.

SMILES strings stand for the structures. Bounds are passed on as bounds.

Chain of Y4R (P50391 whole entry): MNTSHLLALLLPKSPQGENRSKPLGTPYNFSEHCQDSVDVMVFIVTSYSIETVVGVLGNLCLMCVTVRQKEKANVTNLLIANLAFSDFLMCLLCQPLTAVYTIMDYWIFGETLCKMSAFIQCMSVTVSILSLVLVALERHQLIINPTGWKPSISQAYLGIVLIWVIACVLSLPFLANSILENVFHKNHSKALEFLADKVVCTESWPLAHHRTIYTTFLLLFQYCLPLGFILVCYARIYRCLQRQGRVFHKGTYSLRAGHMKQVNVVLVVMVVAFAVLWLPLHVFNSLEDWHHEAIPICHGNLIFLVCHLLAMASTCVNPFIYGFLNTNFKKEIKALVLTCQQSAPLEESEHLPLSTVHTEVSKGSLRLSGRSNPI

For the compound `N=C(N)NCCC[C@H](NC(=O)CC1(CC(=O)N2CCN(C3c4ccccc4NC(=O)c4ccccc43)CC2)CCCC1)C(=O)NCCn1c(=O)n(-c2ccccc2)n(-c2ccccc2)c1=O` (stereo partly shown) [BIIE0246], the NPY release result in assay [1] is “increases NPY release”.

As to `CCCCCCCCCCCCCCCC(=O)N[C@@H](CO)C(=O)N[C@@H](CO)C(=O)NCCCC[C@H](NC(=O)[C@@H](N)[C@@H](C)CC)C(=O)N1CCN(c2ccc3ncn(CC(=O)N[C@@H](CCCNC(=N)N)C(=O)N[C@@H](Cc4c[nH]cn4)C(=O)N[C@@H](Cc4ccc(O)cc4)C(=O)N[C@@H](CC(C)C)C(=O)N[C@@H](CC(N)=O)C(=O)N[C@@H](Cc4c[nH]c5ccccc45)C(=O)N[C@H](C(=O)N[C@H](C(=O)N[C@@H](CCCNC(=N)N)C(=O)N[C@@H](CCC(N)=O)C(=O)N(C)[C@@H](CCCNC(=N)N)C(=O)N[C@@H](Cc4ccc(O)cc4)C(N)=O)[C@@H](C)O)C(C)C)c(=O)c3c2)CC1` [Example 40], the EC50 in assay [2] was over 5 µM; in assay [3] it was over 5 µM; in assay [4] it was 602 nM; in assay [5], 0.18 nM; in assay [6], 0.36 nM. Besides, the Emax in assay [4] came out at 85%.

Take `CCCCCCCCCCCCCCCCCCCC(=O)N[C@@H](CO)C(=O)N[C@@H](CO)C(=O)NCCCC[C@H](NC(=O)[C@@H](N)[C@@H](C)CC)C(=O)N1CCN(c2ccc3ncn(CC(=O)N[C@@H](CCCNC(=N)N)C(=O)N[C@@H](Cc4c[nH]cn4)C(=O)N[C@@H](Cc4ccc(O)cc4)C(=O)N[C@@H](CC(C)C)C(=O)N[C@@H](CC(N)=O)C(=O)N[C@@H](Cc4c[nH]c5ccccc45)C(=O)N[C@H](C(=O)N[C@H](C(=O)N[C@@H](CCCNC(=N)N)C(=O)N[C@@H](CCC(N)=O)C(=O)N(C)[C@@H](CCCNC(=N)N)C(=O)N[C@@H](Cc4ccc(O)cc4)C(N)=O)[C@@H](C)O)C(C)C)c(=O)c3c2)CC1` [Example 41]: the half-maximal effective concentration (EC50) in assay [2] is over 5 µM; in assay [3] it was over 5 µM; in assay [4] it was 1830 nM; in assay [5], 0.11 nM; in assay [6] it was 0.165 nM. Moreover, the Emax in assay [4] turned out to be 37%.

Values taken from patent publication US20100179093A1, “Neoropeptide-2-Receptor (Y-2R) Agonists” (priority 2008, published 2010).
